According to ChEMBL document CHEMBL5500384, “New synergistic benzoquinone scaffolds as inhibitors of mycobacterial cytochrome bc1 complex to treat multi-drug resistant tuberculosis” (Eur J Med Chem, 2024):
Values after ≈ are worked out from the molar mass of the structure shown.

Key:
[1] = tested on: Mycobacterium tuberculosis; test: Antitubercular activity against Mycobacterium tuberculosis H37Rv incubated for 5 days by microtiter plate method; type: functional; details: 120 h, time 5 day
[2] = Cytotoxicity against african green monkey Vero cells by MTT assay; type: toxicity, cell-based; details: chlorocebus sabaeus
[3] = Cytotoxicity against african green monkey Vero cells assessed as cell viability at 100 ug/ml by MTT assay; type: toxicity, cell-based; details: chlorocebus sabaeus, at 100 µg/mL, read-out: Activity
[4] = Cytotoxicity against african green monkey Vero cells assessed as cell viability at 50 ug/ml by MTT assay; type: toxicity, cell-based; details: chlorocebus sabaeus, at 50 µg/mL, read-out: Activity
[5] = Cytotoxicity against african green monkey Vero cells assessed as cell viability at 25 ug/ml by MTT assay; type: toxicity, cell-based; details: chlorocebus sabaeus, at 25 µg/mL, read-out: Activity
[6] = Cytotoxicity against african green monkey Vero cells assessed as cell viability at 12.5 ug/ml by MTT assay; type: toxicity, cell-based; details: chlorocebus sabaeus, at 12.5 µg/mL, read-out: Activity
[7] = Cytotoxicity against african green monkey Vero cells assessed as cell viability at 6.25 ug/ml by MTT assay; type: toxicity, cell-based; details: chlorocebus sabaeus, at 6.25 µg/mL, read-out: Activity
[8] = Cytotoxicity against african green monkey Vero cells assessed as cell viability at 3.125 ug/ml by MTT assay; type: toxicity, cell-based; details: chlorocebus sabaeus, at 3.125 µg/mL, read-out: Activity
[9] = Acute toxicity in Albino mouse assessed as mortality at 2000 mg/kg, po after 2 to 4 hrs; type: organism-based; details: in vivo, time 2-4 hrs
[10] = Acute toxicity in Albino mouse assessed as mortality at 300 mg/kg, po after 14 days; type: organism-based; details: in vivo, 336 h, time 14 day
[11] = Acute toxicity in po dosed Albino mouse assessed as mortality after 14 days; type: organism-based; details: in vivo, time 14 day
[12] = Acute toxicity in Albino mouse assessed as change in hemoglobin level at 50 to 2000 mg/kg, po measured after 14 days (reference value: 12.8 g/dl); type: organism-based; details: in vivo, 336 h, dose 50-2000 mg/kg, time 14 day
[13] = Acute toxicity in Albino mouse assessed as change in total leucocyte count at 50 to 2000 mg/kg, po measured after 14 days (reference value: 7400 mm3); type: organism-based; details: in vivo, 336 h, dose 50-2000 mg/kg, time 14 day
[14] = Acute toxicity in Albino mouse assessed as change in neutrophils at 50 to 2000 mg/kg, po measured after 14 days (reference value: 75%); type: organism-based; details: in vivo, 336 h, dose 50-2000 mg/kg, time 14 day
[15] = Acute toxicity in Albino mouse assessed as change in lymphocytes at 50 to 2000 mg/kg, po measured after 14 days (reference value: 21%); type: organism-based; details: in vivo, 336 h, dose 50-2000 mg/kg, time 14 day
[16] = Acute toxicity in Albino mouse assessed as change in eosinophils at 50 to 2000 mg/kg, po measured after 14 days (reference value: 3%); type: organism-based; details: in vivo, 336 h, dose 50-2000 mg/kg, time 14 day
[17] = Acute toxicity in Albino mouse assessed as change in monocytes at 50 to 2000 mg/kg, po measured after 14 days (reference value: 1%); type: organism-based; details: in vivo, 336 h, dose 50-2000 mg/kg, time 14 day
[18] = Acute toxicity in Albino mouse assessed as change in ESR at 50 to 2000 mg/kg, po measured after 14 days (reference value: 10 millimeter); type: organism-based; details: in vivo, 336 h, dose 50-2000 mg/kg, time 14 day
[19] = Acute toxicity in Albino mouse assessed as change in platelet count at 50 to 2000 mg/kg, po measured after 14 days (reference value: 3.24 mm3); type: organism-based; design: unit not given here; details: in vivo, 336 h, dose 50-2000 mg/kg, time 14 day
[20] = Acute toxicity in Albino mouse assessed as change in RBC count measured per million cells at 50 to 2000 mg/kg, po measured after 14 days (reference value: 9.15 microL); type: organism-based, Erythrocyte; details: in vivo, 336 h, dose 50-2000 mg/kg, time 14 day
[21] = Acute toxicity in Albino mouse assessed as change in SGOT count at 50 to 2000 mg/kg, po measured after 14 days (reference value: 42 IU/L); type: organism-based; details: in vivo, 336 h, dose 50-2000 mg/kg, time 14 day
[22] = Acute toxicity in Albino mouse assessed as change in SGPT count at 50 to 2000 mg/kg, po measured after 14 days (reference value: 52 IU/L); type: organism-based; details: in vivo, 336 h, dose 50-2000 mg/kg, time 14 day
[23] = Acute toxicity in Albino mouse assessed as change in serum creatine level at 50 to 2000 mg/kg, po measured after 14 days (reference value: 0.9 mg/dl); type: organism-based; details: in vivo, 336 h, dose 50-2000 mg/kg, time 14 day
[24] = Acute toxicity in Albino mouse assessed as change in serum urea level at 50 to 2000 mg/kg, po measured after 14 days (reference value: 46 mg/dl); type: organism-based; details: in vivo, 336 h, dose 50-2000 mg/kg, time 14 day
[25] = Acute toxicity in Albino mouse assessed as change in ALP level at 50 to 2000 mg/kg, po measured after 14 days (reference value: 28 IU/L); type: organism-based; details: in vivo, 336 h, dose 50-2000 mg/kg, time 14 day
[26] = Acute toxicity in Albino mouse assessed as change in LDH level at 50 to 2000 mg/kg, po measured after 14 days (reference value: 1052 IU/L); type: organism-based; details: in vivo, 336 h, dose 50-2000 mg/kg, time 14 day
[27] = Renal toxicity in Albino mouse assessed as change in renal corpuscles at 50 to 2000 mg/kg, po measured after 14 days; type: organism-based; details: in vivo, 336 h, dose 50-2000 mg/kg, time 14 day
[28] = Renal toxicity in Albino mouse assessed as change in renal tubules at 50 to 2000 mg/kg, po measured after 14 days; type: organism-based; details: in vivo, 336 h, dose 50-2000 mg/kg, time 14 day
[29] = Renal toxicity in Albino mouse assessed as change in Bowman's capsule at 50 to 2000 mg/kg, po measured after 14 days; type: organism-based; details: in vivo, 336 h, dose 50-2000 mg/kg, time 14 day
[30] = Renal toxicity in Albino mouse assessed as change in proximal convoluted tubules at 50 to 2000 mg/kg, po measured after 14 days; type: organism-based; details: in vivo, 336 h, dose 50-2000 mg/kg, time 14 day
[31] = Renal toxicity in Albino mouse assessed as change in distal convoluted tubules at 50 to 2000 mg/kg, po measured after 14 days; type: organism-based; details: in vivo, 336 h, dose 50-2000 mg/kg, time 14 day
[32] = Renal toxicity in Albino mouse assessed as change in tubular capillaries at 50 to 2000 mg/kg, po measured after 14 days; type: organism-based; details: in vivo, 336 h, dose 50-2000 mg/kg, time 14 day
[33] = Renal toxicity in Albino mouse assessed as extravasation of RBC at 50 to 2000 mg/kg, po measured after 14 days; type: organism-based, Erythrocyte; details: in vivo, 336 h, dose 50-2000 mg/kg, time 14 day
[34] = Renal toxicity in Albino mouse assessed as structural absorbability abnormalities at 50 to 2000 mg/kg, po measured after 14 days; type: organism-based; details: in vivo, 336 h, dose 50-2000 mg/kg, time 14 day
[35] = Hepatotoxicity in Albino mouse assessed as change in central vein at 50 to 2000 mg/kg, po measured after 14 days; type: toxicity, organism-based; details: in vivo, 336 h, dose 50-2000 mg/kg, time 14 day
[36] = Hepatotoxicity in Albino mouse assessed as change in portal tracks at 50 to 2000 mg/kg, po measured after 14 days; type: toxicity, organism-based; details: in vivo, 336 h, dose 50-2000 mg/kg, time 14 day
[37] = Hepatotoxicity in Albino mouse assessed as change in portal vein at 50 to 2000 mg/kg, po measured after 14 days; type: toxicity, organism-based; details: in vivo, 336 h, dose 50-2000 mg/kg, time 14 day
[38] = Hepatotoxicity in Albino mouse assessed as change in hepatic artery at 50 to 2000 mg/kg, po measured after 14 days; type: toxicity, organism-based, Liver; details: in vivo, 336 h, dose 50-2000 mg/kg, time 14 day
[39] = Hepatotoxicity in Albino mouse assessed as change in bile duct at 50 to 2000 mg/kg, po measured after 14 days; type: toxicity, organism-based, Liver; details: in vivo, 336 h, dose 50-2000 mg/kg, time 14 day
[40] = Hepatotoxicity in Albino mouse assessed as change in hepatocytes at 50 to 2000 mg/kg, po measured after 14 days; type: toxicity, organism-based; details: in vivo, 336 h, dose 50-2000 mg/kg, time 14 day
[41] = Pulmonary toxicity in Albino mouse assessed as change in bronchi structure at 50 to 2000 mg/kg, po measured after 14 days; type: organism-based; details: in vivo, 336 h, dose 50-2000 mg/kg, time 14 day
[42] = Pulmonary toxicity in Albino mouse assessed as change in alveoli structure at 50 to 2000 mg/kg, po measured after 14 days; type: organism-based; details: in vivo, 336 h, dose 50-2000 mg/kg, time 14 day
[43] = Pulmonary toxicity in Albino mouse assessed as change in alveolar sacs at 50 to 2000 mg/kg, po measured after 14 days; type: organism-based; details: in vivo, 336 h, dose 50-2000 mg/kg, time 14 day
[44] = Pulmonary toxicity in Albino mouse assessed as change in squamous pneumocytes at 50 to 2000 mg/kg, po measured after 14 days; type: organism-based; details: in vivo, 336 h, dose 50-2000 mg/kg, time 14 day
[45] = Pulmonary toxicity in Albino mouse assessed as appearance of goblet cells at 50 to 2000 mg/kg, po measured after 14 days; type: organism-based; details: in vivo, 336 h, dose 50-2000 mg/kg, time 14 day
[46] = Pulmonary toxicity in Albino mouse assessed as appearance of cilia at 50 to 2000 mg/kg, po measured after 14 days; type: organism-based; details: in vivo, 336 h, dose 50-2000 mg/kg, time 14 day

With `CCOc1cc(C2C(Cl)C(=O)N2C2=C(Cl)C(=O)c3ccccc3C2=O)ccc1O` (stereo unspecified) the MIC [1] was 14.5 µM (≈ 6.25 µg/mL), the Activity [2] was “Dose-Dependent Effect” and the viability at 100 ug/ml [3] was 10.4%. It also gave a viability at 50 ug/ml [4] of 30.6%, a viability at 25 ug/ml [5] of 67.8% and a viability at 12.5 ug/ml [6] of 100%. For the same compound, the viability at 6.25 ug/ml [7] was 100%, the viability at 3.125 ug/ml [8] was 100% and the Activity [9] was “Toxic”. The Activity [10] was “Non-Toxic”, the LD50 at 336 h [11] was 300 mg/kg and the Activity [12] was 12.5 g/dL. The Activity [13] was 8200 mm3, the Activity [14] was 66% and the Activity [15] was 34%. It also gave an Activity [16] of 3%, an Activity [17] of 1% and an Activity [18] of 11 millimeter/hr. The Activity [19] was 4.9, the Activity [20] was 8.95 and the Activity [21] was 168.67 IU/L. For the same compound, the Activity [22] was 75.33 IU/L, the Activity [23] was under 0.3 mg/dL and the Activity [24] was 35.72 mg/dL. For the same compound, the Activity [25] was 832.75 IU/L, the Activity [26] was 470.21 IU/L and the Activity [27] was “Non-Toxic”. For the same compound, the Activity [28] was “Non-Toxic”, the Activity [29] was “Non-Toxic” and the Activity [30] was “Non-Toxic”. For the same compound, the Activity [31] was “Non-Toxic”, the Activity [32] was “Non-Toxic” and the Activity [33] was “Non-Toxic”. For the same compound, the Activity [34] was “Non-Toxic”, the Activity [35] was “Non-Toxic” and the Activity [36] was “Non-Toxic”. The Activity [37] was “Non-Toxic”, the Activity [38] was “Non-Toxic” and the Activity [39] was “Non-Toxic”. For the same compound, the Activity [40] was “Non-Toxic”, the Activity [41] was “Non-Toxic” and the Activity [42] was “Non-Toxic”. For the same compound, the Activity [43] was “Non-Toxic”, the Activity [44] was “Non-Toxic” and the Activity [45] was “Non-Toxic”. For the same compound, the Activity [46] was “Non-Toxic”.
